Columns and labels:
Assay type in all cases: in vivo
Abutilon theophrasti [1] = test: Herbicidal action post-emergence, greenhouse pot test; conditions: application rate 80 g/ha
Summary of the method: (§1)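 Weeds in sandy loam pots sprayed at one-leaf stage (2–3 weeks after sowing) with WP or EC formulations in water plus 0.5% additive, 600 L/ha, at 80 g/ha or lower. After about 3 weeks in greenhouse, efficacy scored visually versus untreated controls (100% = dead, 0% = like control).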

Alopecurus myosuroides [2] = test: as above; conditions: application rate 80 g/ha, scored visually after about 3 weeks vs untreated controls
Summary of the method: as §1

Amaranthus retroflexus [3] = test: as above
Summary of the method: as §1

Echinochloa crus-galli [4] = test: as above; conditions: application rate 80 g/ha
Summary of the method: as §1

Hordeum murinum [5] = test: as above
Summary of the method: as §1

Lolium rigidum [6] = test: as above; conditions: application rate 80 g/ha
Summary of the method: as §1

Matricaria inodora [7] = test: as above
Summary of the method: as §1

Pharbitis purpurea [8] = test: as above; conditions: application rate 80 g/ha
Summary of the method: as §1

Polygonum convolvulus [9] = test: as above
Summary of the method: as §1

Setaria viridis [10] = test: as above
Summary of the method: as §1

Stellaria media [11] = test: as above
Summary of the method: as §1

Veronica persica [12] = test: as above; conditions: application rate 80 g/ha
Summary of the method: as §1

Viola tricolor [13] = test: as above; conditions: application rate 80 g/ha
Summary of the method: as §1

Zea mays = test: Crop compatibility post-emergence, greenhouse pot test; conditions: application rate 20 g/ha
Summary of the method: (§2)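 Visual % damage versus untreated plants, read about 3 weeks after treatment (100% = plants died, 0% = as control). Crops were sown in sandy loam pots in a greenhouse and sprayed at one-leaf stage with WP/EC compound in water with 0.5% additive, 600 L/ha.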

Abutilon theophrasti [14] = test: Herbicidal action pre-emergence, greenhouse pot test
Summary of the method: (§3)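 Seeds sown in pots and covered with soil; WP or EC formulations sprayed onto the soil surface as aqueous suspension/emulsion with 0.5% additive at 600 L/ha water, at 320 g/ha or lower. Plants kept in greenhouse; efficacy scored visually after about 3 weeks as % versus untreated controls (100% = dead).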

Alopecurus myosuroides [15] = test: as above; conditions: application rate 320 g/ha
Summary of the method: as §3

Amaranthus retroflexus [16] = test: as above
Summary of the method: as §3

Avena fatua = test: as above; conditions: application rate 320 g/ha
Summary of the method: as §3

Echinochloa crus-galli [17] = test: as above; conditions: application rate 320 g/ha
Summary of the method: as §3

Hordeum murinum [18] = test: as above; conditions: application rate 320 g/ha
Summary of the method: as §3

Lolium rigidum [19] = test: as above
Summary of the method: as §3

Pharbitis purpurea [20] = test: as above
Summary of the method: as §3

Polygonum convolvulus [21] = test: as above
Summary of the method: as §3

Setaria viridis [22] = test: as above
Summary of the method: as §3

Stellaria media [23] = test: as above
Summary of the method: as §3

Veronica persica [24] = test: as above
Summary of the method: as §3

Viola tricolor [25] = test: as above
Summary of the method: as §3

Matricaria inodora [26] = test: as above
Cyperus esculentus = test: as above; conditions: application rate 320 g/ha
Summary of the method: as §3

Oryza sativa = test: Crop compatibility post-emergence, greenhouse pot test; conditions: application rate 20 g/ha
Summary of the method: as §2

Triticum aestivum = test: as above; conditions: application rate 5 g/ha
Summary of the method: as §2

Row | Structure (SMILES) | Abutilon theophrasti (Efficacy in %) (Abutilon theophrasti [1]) | Alopecurus myosuroides (Efficacy in %) (Alopecurus myosuroides [2]) | Echinochloa crus-galli (Efficacy in %) (Echinochloa crus-galli [4]) | Hordeum murinum (Efficacy in %) (Hordeum murinum [5]; application rate 80 g/ha) | Lolium rigidum (Efficacy in %) (Lolium rigidum [6]) | Pharbitis purpurea (Efficacy in %) (Pharbitis purpurea [8]) | Polygonum convolvulus (Efficacy in %) (Polygonum convolvulus [9]; application rate 80 g/ha) | Stellaria media (Efficacy in %) (Stellaria media [11]; application rate 80 g/ha) | Veronica persica (Efficacy in %) (Veronica persica [12]) | Viola tricolor (Efficacy in %) (Viola tricolor [13]) | Alopecurus myosuroides (Efficacy in %) (Alopecurus myosuroides [15]) | Avena fatua (Efficacy in %) (Avena fatua) | Echinochloa crus-galli (Efficacy in %) (Echinochloa crus-galli [17]) | Hordeum murinum (Efficacy in %) (Hordeum murinum [18]) | Lolium rigidum (Efficacy in %) (Lolium rigidum [19]; application rate 320 g/ha) | Veronica persica (Efficacy in %) (Veronica persica [24]; application rate 80 g/ha) | Amaranthus retroflexus (Efficacy in %) (Amaranthus retroflexus [3]; application rate 20 g/ha) | Matricaria inodora (Efficacy in %) (Matricaria inodora [7]; application rate 20 g/ha) | Setaria viridis (Efficacy in %) (Setaria viridis [10]; application rate 80 g/ha) | Abutilon theophrasti (Efficacy in %) (Abutilon theophrasti [14]; application rate 320 g/ha) | further results
1 | CC(C)NC(=O)COC(=O)C(C)Sc1cc(-n2c(=O)cc(C(F)(F)F)n(C)c2=O)c(F)cc1Cl (centres unmarked) [I.1-184] | 100% | 80% | 100% | 80% | 100% | 100% | 100% | 100% | 100% | 100% | 90% | 90% | 100% | 90% | 100% | 100% |  |  |  |  | Amaranthus retroflexus (Efficacy in %) (Amaranthus retroflexus [3]; application rate 80 g/ha): 100%; Matricaria inodora (Efficacy in %) (Matricaria inodora [7]; application rate 80 g/ha): 100%; Setaria viridis (Efficacy in %) (Setaria viridis [10]; application rate 20 g/ha): 100%; Zea mays (Efficacy in %) (Zea mays): 20%; Abutilon theophrasti (Efficacy in %) (Abutilon theophrasti [14]; application rate 80 g/ha): 100%; Amaranthus retroflexus (Efficacy in %) (Amaranthus retroflexus [16]; application rate 80 g/ha): 100%; Pharbitis purpurea (Efficacy in %) (Pharbitis purpurea [20]; application rate 80 g/ha): 100%; Polygonum convolvulus (Efficacy in %) (Polygonum convolvulus [21]; application rate 80 g/ha): 100%; Setaria viridis (Efficacy in %) (Setaria viridis [22]; application rate 80 g/ha): 100%; Stellaria media (Efficacy in %) (Stellaria media [23]; application rate 80 g/ha): 100%; Viola tricolor (Efficacy in %) (Viola tricolor [25]; application rate 80 g/ha): 100%; Matricaria inodora (Efficacy in %) (Matricaria inodora [26]; application rate 80 g/ha): 100%
2 | COC(=O)CCOC(=O)CSc1cc(-n2c(=O)cc(C(F)(F)F)n(C)c2=O)c(F)cc1Cl [I.8-2] | 100% | 80% | 100% |  | 90% | 100% |  |  | 100% | 100% | 80% | 80% | 100% | 80% |  | 100% | 100% | 100% | 100% | 100% | Hordeum murinum (Efficacy in %) (Hordeum murinum [5]; application rate 20 g/ha): 80%; Polygonum convolvulus (Efficacy in %) (Polygonum convolvulus [9]; application rate 20 g/ha): 100%; Stellaria media (Efficacy in %) (Stellaria media [11]; application rate 20 g/ha): 100%; Amaranthus retroflexus (Efficacy in %) (Amaranthus retroflexus [16]; application rate 20 g/ha): 100%; Cyperus esculentus (Efficacy in %) (Cyperus esculentus): 90%; Lolium rigidum (Efficacy in %) (Lolium rigidum [19]; application rate 80 g/ha): 90%; Pharbitis purpurea (Efficacy in %) (Pharbitis purpurea [20]; application rate 320 g/ha): 100%; Polygonum convolvulus (Efficacy in %) (Polygonum convolvulus [21]; application rate 320 g/ha): 100%; Setaria viridis (Efficacy in %) (Setaria viridis [22]; application rate 320 g/ha): 100%; Stellaria media (Efficacy in %) (Stellaria media [23]; application rate 320 g/ha): 100%; Viola tricolor (Efficacy in %) (Viola tricolor [25]; application rate 320 g/ha): 100%; Matricaria inodora (Efficacy in %) (Matricaria inodora [26]; application rate 320 g/ha): 100%
3 | COC(=O)COC(=O)CSc1cc(-n2c(=O)cc(C(F)(F)F)n(C)c2=O)c(F)cc1Cl [I.8-42] | 100% |  | 100% | 80% |  | 100% | 100% | 100% | 100% | 100% |  | 80% | 100% | 80% | 80% |  | 100% | 100% | 100% | 100% | Oryza sativa (Efficacy in %) (Oryza sativa): 0%; Triticum aestivum (Efficacy in %) (Triticum aestivum): 20%; Amaranthus retroflexus (Efficacy in %) (Amaranthus retroflexus [16]; application rate 20 g/ha): 100%; Cyperus esculentus (Efficacy in %) (Cyperus esculentus): 100%; Pharbitis purpurea (Efficacy in %) (Pharbitis purpurea [20]; application rate 320 g/ha): 100%; Polygonum convolvulus (Efficacy in %) (Polygonum convolvulus [21]; application rate 320 g/ha): 100%; Setaria viridis (Efficacy in %) (Setaria viridis [22]; application rate 320 g/ha): 100%; Stellaria media (Efficacy in %) (Stellaria media [23]; application rate 320 g/ha): 100%; Veronica persica (Efficacy in %) (Veronica persica [24]; application rate 320 g/ha): 100%; Viola tricolor (Efficacy in %) (Viola tricolor [25]; application rate 320 g/ha): 100%; Matricaria inodora (Efficacy in %) (Matricaria inodora [26]; application rate 320 g/ha): 100%
